According to PubChem BioAssay (NCI):
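Growth conditions: 96-well plates. Treatment: test compound, 48 hours, 5 concentrations. Analysis: linear interpolation between bracketing concentrations; unreached endpoints set to highest concentration. Abbreviation: GI50, concentration required for 50% inhibition of growth. The concentration for full growth arrest is given as TGI.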

Tests used:
Assay in all cases: growth of human tumour cells (NCI), 48 h
[1] = test system: HS 578T breast
[2] = test system: HL-60(TB) leukemia
[3] = test system: CAKI-1 renal
[4] = test system: EKVX NSCLC
[5] = test system: RXF 393 renal
[6] = test system: MDA-MB-435
[7] = test system: LOX IMVI melanoma
[8] = test system: A498 renal
[9] = test system: NCI-H226 lung
[10] = test system: K-562 leukemia

SMILES	GI50 [1] [µM]	TGI [1] [µM]	GI50 [2] [µM]	TGI [2] [µM]	GI50 [3] [µM]	TGI [3] [µM]	GI50 [4] [µM]	TGI [4] [µM]	GI50 [5] [µM]	TGI [5] [µM]	GI50 [6] [µM]	TGI [6] [µM]	GI50 [7] [µM]	TGI [7] [µM]	GI50 [8] [µM]	TGI [8] [µM]	GI50 [9] [µM]	TGI [9] [µM]	GI50 [10] [µM]	TGI [10] [µM]
Cc1cc(NC(=O)c2ccc(NS(=O)(=O)CCO)cc2N2CCC3(CC2)CC3)nc(N2CCC(F)(F)CC2)n1	0.746	21.9	19.4	> 57.1	10.9	23.2	14.2	28.8	0.26	6.58	0.903	18.5	7.05	27.3	16.7	31	2.09	29.3	3.59	> 51.4
COc1ccc(C(=S)c2cc(OC)c(OC)c(OC)c2)cc1OC(=O)CCl	0.023	> 100	< 0.0129	< 0.0218	0.0449	52.1	0.652	> 100	0.022	> 77.3	< 0.01	< 0.0108	0.0102	> 100	0.179	2.5	2.77	> 100	< 0.01	> 100
Nc1ncc(-c2cnn(C3CCNCC3)c2)cc1-c1nc2ccccc2o1	1.75	4.28	0.472	1.66	0.532	2.85	4.4	17.8	0.485	2.25	1.21	2.62	1.2	2.59	1.53	3.46	1.97	6.59	0.309	1.07
CS(=O)(=O)CCNCc1ccc(-c2ccc3ncnc(Nc4ccc(OCc5ccccc5)c(C(F)(F)F)c4)c3c2)o1	4.16	12.2	5.65	13.3	7.09	> 25	7.87	> 25	3.53	7.77	4.8	10.5	4.27	8.33	6.51	25	7.75	> 25	6.83	18.2
O=C1C(=O)c2cc([N+](=O)[O-])ccc2-c2ccccc21	1.68	4.49			1.67	3.21	1.62	3.16	1.96	3.43	0.402	1.53	1.22	2.48	12.5	25.1	1.78	3.27		
C[C@H]1CCC/C=C/[C@@H]2C[C@H](O)C[C@H]2[C@H](O)[C@H](S(=O)c2ccc(O)cc2)CC(=O)O1 (stereo partly drawn)	0.0726	> 100	0.0338	0.139	0.114		0.0824	> 36.9	< 0.0106	0.061	0.0417		0.0208	0.0533	0.0307	0.0716	0.0344	0.146	0.0994	> 100
COc1ccc(OC)c(/C=C/c2nnc(Nc3ccc(Cl)cc3)o2)c1	2.71	8.01	> 100	> 100	6.02	> 100	40.5	> 100	2.71	7.92	37	> 100	7.91	> 100	1.87	7.76			92.8	> 100
O=C1C2CC3C(CC2C(=O)[N]1[Sn]([c]1ccccc1)([c]1ccccc1)[c]1ccccc1)C1(Cl)C(Cl)=C(Cl)C3(Cl)C1(Cl)Cl (stereo not drawn)	0.204	1.11	0.176	0.497	0.12	0.275			0.0863	0.26	0.0872	0.257	0.0588	0.184	0.12	0.276	0.184	0.437	0.0492	0.754
O=c1[nH]cnc2c(C3OC(CO)C(O)C3O)[nH]nc12 (stereo not drawn)		> 100		> 100		> 100		> 100		> 100		> 100		> 100		> 100		> 100		> 100
N=c1ccn2c(n1)OC1C(OP(=O)(O)O)C(CO)OC12 (stereo not drawn)		> 100		13.6		> 100		> 100		> 100		> 100		> 100		> 100		> 100		> 100
CC(=O)[O-].CC(=O)[O-].[Mn+2].c1ccc(/C(=N\Nc2ccccn2)c2ccccn2)cc1		70.2	0.00173	0.00504	0.0393	8.47	0.0187	19.9		14		18.7		2.06		30.6		3	0.00305	
CCCCCCCCCCCCCCCCC1=CC(=O)C=C(OC)C1=O		> 100		> 100		> 100		> 100		> 100		> 100		> 100		> 100		> 100		> 100
CCOC(=O)[C@H](CSSc1ncnc2cc[nH]c12)NC(=O)[C@@H](C)c1ccc2cc(OC)ccc2c1	7.92	> 100	1.04	> 100	0.378	> 100	> 100	> 100	1.62	> 100	0.355	> 100	0.081	18.1	6.96	> 50.9	0.614	> 100	0.156	> 100
O=S(=O)(NCCNc1cc(-c2cn(-c3ccccc3)nc2-c2cccc(O)c2)ccn1)c1ccc(C(F)(F)F)cc1	2.31	19.4	2.17	4.77	1.94	5.35	2.25	11.8	2.52	10	2.4	7.63	1.7	3.29	3.05	14.5	5.36	30.9	2.48	6.58
